The record followed here is US20040229872A1, “Substituted cyclohexane-1,4-diamine compounds with anti-diarrhea and peripheral analgesic activity” (Gruenenthal GmbH, priority 2001, published 2004).

For data set [1], the system named is mice. Put plainly: PGE2-induced diarrhea in mice. Type of data set: in vivo.
Data set [2] has as its system mice. The following applies: mouse, in vivo, po.
Data set [3] relates to mice. The following applies: mouse, in vivo.
Data set [4] relates to mice. Put plainly: animal or person. To be noted: Mus musculus, iv, read-out: Analgesia, tail flick test in mice, i.v., ED50.

Bounds are passed on as bounds.

As for `CN(C)C(=O)C(CCN1CCC(O)(c2ccc(Cl)cc2)CC1)(c1ccccc1)c1ccccc1` [Loperamide, loperamide], the ED50 in the data set with mice [1] (Mus musculus, iv, read-out: ED50 Value (mg/kg) i.v.) is 0.41 mg/kg; in the data set on mice [4], greater than 0.562 mg/kg. Also, in the data set with mice [1] (mouse, in vivo, iv), the “PGE2-diarrhea, mice, ED50 i.v.” value was “ED50 i.v. = 0.41 μM”. In the data set on mice [1] (mouse, in vivo, po), the “PGE2-diarrhea, mice, ED50 p.o.” value is “ED50 p.o. = 9.34 μM”. The “Carbon passage, mice, ED50 p.o.” value with mice [2] was “ED50 p.o. = ˜15 μM”. Moreover, the “action on the central nervous system (in words)” value with mice [3] was “always has a measurable action”. In addition, in the data set with mice [3] (iv), the “tail flick test in mice, i.v.: toxic side effects from” value is “toxic from 0.464”.
